# Tested on: LG0703-F948-PDC complex spheroid viability
# Assay: Anticancer human tumor LG0703-F948-PDC patient-derived lung adenocarcinoma cell line growth inhibition [RAS]
# Conditions: for viability, T/C: stronger effect = lower value
# In short: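 Multi-cell-type spheroids: tumor cells plus HUVEC endothelial cells and mesenchymal stem cells. RAS-pathway inhibitors were combined with targeted agents, each dosed in half-log steps down from clinical Cmax, or from 10 microM when Cmax was unknown.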
# 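Further: spheroids exposed to agents for 7 days.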
# 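Wherever viability, T/C is given: 100% = DMSO vehicle wells.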
structure (smiles),measurement,setting,value
CC(=O)OC12COC1CC(O)C1(C)C(=O)C(O)C3=C(C)C(OC(=O)C(O)C(NC(=O)OC(C)(C)C)c4ccccc4)CC(O)(C(OC(=O)c4ccccc4)C21)C3(C)C (stereo not given) + C=CC(=O)N1CCN(c2nc(OCC3CCCN3C)nc3c(F)c(-c4nc(N)cc(C)c4C(F)(F)F)c(Cl)cc23)C(C)C1,IC50,"curve of first compound, second compound 0.00316 µM",< 31.6 nM
same,IC50,"curve of first compound, second compound 0.01 µM",< 31.6 nM
same,IC50,"curve of first compound, second compound 0.0316 µM",< 31.6 nM
same,IC50,"curve of first compound, second compound 0.1 µM",< 31.6 nM
same,IC50,"curve of first compound, second compound 0.316 µM",< 31.6 nM
same,IC50,"curve of first compound, second compound 1 µM",< 31.6 nM
same,"viability, T/C","second compound 0.00316 µM, first compound 0.0316 µM",26.8%
same,"viability, T/C","second compound 0.00316 µM, first compound 0.1 µM",25.4%
same,"viability, T/C","second compound 0.00316 µM, first compound 0.316 µM",22.2%
same,"viability, T/C","second compound 0.00316 µM, first compound 1 µM",23.7%
same,"viability, T/C","second compound 0.00316 µM, first compound 3.16 µM",29.5%
same,"viability, T/C","second compound 0.00316 µM, first compound 10 µM",27.1%
same,"viability, T/C","second compound 0.01 µM, first compound 0.0316 µM",23.1%
same,"viability, T/C","second compound 0.01 µM, first compound 0.1 µM",24.4%
same,"viability, T/C","second compound 0.01 µM, first compound 0.316 µM",26.5%
same,"viability, T/C","second compound 0.01 µM, first compound 1 µM",23.5%
same,"viability, T/C","second compound 0.01 µM, first compound 3.16 µM",30.9%
same,"viability, T/C","second compound 0.01 µM, first compound 10 µM",27.5%
same,"viability, T/C","second compound 0.0316 µM, first compound 0.0316 µM",28.5%
same,"viability, T/C","second compound 0.0316 µM, first compound 0.1 µM",26.2%
same,"viability, T/C","second compound 0.0316 µM, first compound 0.316 µM",26.1%
same,"viability, T/C","second compound 0.0316 µM, first compound 1 µM",30.7%
same,"viability, T/C","second compound 0.0316 µM, first compound 3.16 µM",22.3%
same,"viability, T/C","second compound 0.0316 µM, first compound 10 µM",29%
same,"viability, T/C","second compound 0.1 µM, first compound 0.0316 µM",22.1%
same,"viability, T/C","second compound 0.1 µM, first compound 0.1 µM",26.4%
same,"viability, T/C","second compound 0.1 µM, first compound 0.316 µM",28.6%
same,"viability, T/C","second compound 0.1 µM, first compound 1 µM",28.8%
same,"viability, T/C","second compound 0.1 µM, first compound 3.16 µM",27.4%
same,"viability, T/C","second compound 0.1 µM, first compound 10 µM",24.7%
same,"viability, T/C","second compound 0.316 µM, first compound 0.0316 µM",24.9%
same,"viability, T/C","second compound 0.316 µM, first compound 0.1 µM",24%
same,"viability, T/C","second compound 0.316 µM, first compound 0.316 µM",26.4%
same,"viability, T/C","second compound 0.316 µM, first compound 1 µM",30.4%
same,"viability, T/C","second compound 0.316 µM, first compound 3.16 µM",28.1%
same,"viability, T/C","second compound 0.316 µM, first compound 10 µM",23.6%
same,"viability, T/C","second compound 1 µM, first compound 0.0316 µM",31.5%
same,"viability, T/C","second compound 1 µM, first compound 0.1 µM",27.3%
same,"viability, T/C","second compound 1 µM, first compound 0.316 µM",27.9%
same,"viability, T/C","second compound 1 µM, first compound 1 µM",29.2%
same,"viability, T/C","second compound 1 µM, first compound 3.16 µM",33.5%
same,"viability, T/C","second compound 1 µM, first compound 10 µM",32%
CCc1c2c(nc3ccc(O)cc13)-c1cc3c(c(=O)n1C2)COC(=O)[C@]3(O)CC + CCn1c(-c2cccnc2C(C)OC)c2c3cc(ccc31)N1CCOC(CC(NC(=O)C(C(C)C)N(C)C(=O)C3(F)CCN(C(=O)C#CC(C)(C)N(C)C)CC3)C(=O)N3CCCC(N3)C(=O)OCC(C)(C)C2)C1,IC50,"curve of first compound, second compound 0.000949 µM",83.9 nM
same,IC50,"curve of first compound, second compound 0.003 µM",77 nM
same,IC50,"curve of first compound, second compound 0.00949 µM",63.7 nM
same,IC50,"curve of first compound, second compound 0.03 µM",51.8 nM
same,IC50,"curve of first compound, second compound 0.0949 µM",19.9 nM
same,IC50,"curve of first compound, second compound 0.3 µM",< 0.949 nM
same,"viability, T/C","second compound 0.000949 µM, first compound 0.000949 µM",123%
same,"viability, T/C","second compound 0.000949 µM, first compound 0.003 µM",86.9%
same,"viability, T/C","second compound 0.000949 µM, first compound 0.00949 µM",103%
same,"viability, T/C","second compound 0.000949 µM, first compound 0.03 µM",66%
same,"viability, T/C","second compound 0.000949 µM, first compound 0.0949 µM",43.3%
same,"viability, T/C","second compound 0.000949 µM, first compound 0.3 µM",30.6%
same,"viability, T/C","second compound 0.003 µM, first compound 0.000949 µM",130%
same,"viability, T/C","second compound 0.003 µM, first compound 0.003 µM",102%
same,"viability, T/C","second compound 0.003 µM, first compound 0.00949 µM",103%
same,"viability, T/C","second compound 0.003 µM, first compound 0.03 µM",60.5%
same,"viability, T/C","second compound 0.003 µM, first compound 0.0949 µM",48.1%
same,"viability, T/C","second compound 0.003 µM, first compound 0.3 µM",30.3%
same,"viability, T/C","second compound 0.00949 µM, first compound 0.000949 µM",111%
same,"viability, T/C","second compound 0.00949 µM, first compound 0.003 µM",103%
same,"viability, T/C","second compound 0.00949 µM, first compound 0.00949 µM",104%
same,"viability, T/C","second compound 0.00949 µM, first compound 0.03 µM",62.4%
same,"viability, T/C","second compound 0.00949 µM, first compound 0.0949 µM",46.8%
same,"viability, T/C","second compound 0.00949 µM, first compound 0.3 µM",26%
same,"viability, T/C","second compound 0.03 µM, first compound 0.000949 µM",113%
same,"viability, T/C","second compound 0.03 µM, first compound 0.003 µM",93.9%
same,"viability, T/C","second compound 0.03 µM, first compound 0.00949 µM",87.5%
same,"viability, T/C","second compound 0.03 µM, first compound 0.03 µM",56%
same,"viability, T/C","second compound 0.03 µM, first compound 0.0949 µM",40.4%
same,"viability, T/C","second compound 0.03 µM, first compound 0.3 µM",27.4%
same,"viability, T/C","second compound 0.0949 µM, first compound 0.000949 µM",85.7%
same,"viability, T/C","second compound 0.0949 µM, first compound 0.003 µM",91.2%
same,"viability, T/C","second compound 0.0949 µM, first compound 0.00949 µM",63.3%
same,"viability, T/C","second compound 0.0949 µM, first compound 0.03 µM",42.7%
same,"viability, T/C","second compound 0.0949 µM, first compound 0.0949 µM",27.1%
same,"viability, T/C","second compound 0.0949 µM, first compound 0.3 µM",22.9%
same,"viability, T/C","second compound 0.3 µM, first compound 0.000949 µM",44%
same,"viability, T/C","second compound 0.3 µM, first compound 0.003 µM",49.9%
same,"viability, T/C","second compound 0.3 µM, first compound 0.00949 µM",46.3%
same,"viability, T/C","second compound 0.3 µM, first compound 0.03 µM",25.8%
same,"viability, T/C","second compound 0.3 µM, first compound 0.0949 µM",19.2%
same,"viability, T/C","second compound 0.3 µM, first compound 0.3 µM",14.1%
CCn1c(-c2cc(N3CCN(C)CC3)cnc2C(C)OC)c2c3cc(ccc31)-c1csc(n1)CC(NC(=O)C1CC1C)C(=O)N1CCCC(N1)C(=O)OCC(C)(C)C2 (stereo not given),"viability, T/C",compound 0.003 µM,46.6% [middle of 8 runs]
same,"viability, T/C",compound 0.00949 µM,25.5% [middle of 8 runs]
same,"viability, T/C",compound 0.03 µM,14% [middle of 8 runs]
same,"viability, T/C",compound 0.0949 µM,11.6% [middle of 8 runs]
same,"viability, T/C",compound 0.3 µM,12.3% [middle of 8 runs]
same,IC50,"compound alone, run of 08/26/2024",2.7 nM [middle of 8 runs]
